Laboratory results as given in patent US8455665B2, “3-phenoxymethylpyrrolidine compounds” (Theravance, Inc., priority 2009, dated 2013).
Marks after values point to notes of the source that are not given here.

How the values were obtained:
SERT = SERT (Homo sapiens, UniProt P31645); assay: fluorescence-based serotonin uptake assay (Tsuruda et al. 2010); assay type: cell-based; details: serotonin reuptake inhibition, fluorescence-based assay (data indicated by an asterisk); for IC50: read-out: SERT pIC50 (converted)
Sequence of SERT (P31645 whole entry, species assumed): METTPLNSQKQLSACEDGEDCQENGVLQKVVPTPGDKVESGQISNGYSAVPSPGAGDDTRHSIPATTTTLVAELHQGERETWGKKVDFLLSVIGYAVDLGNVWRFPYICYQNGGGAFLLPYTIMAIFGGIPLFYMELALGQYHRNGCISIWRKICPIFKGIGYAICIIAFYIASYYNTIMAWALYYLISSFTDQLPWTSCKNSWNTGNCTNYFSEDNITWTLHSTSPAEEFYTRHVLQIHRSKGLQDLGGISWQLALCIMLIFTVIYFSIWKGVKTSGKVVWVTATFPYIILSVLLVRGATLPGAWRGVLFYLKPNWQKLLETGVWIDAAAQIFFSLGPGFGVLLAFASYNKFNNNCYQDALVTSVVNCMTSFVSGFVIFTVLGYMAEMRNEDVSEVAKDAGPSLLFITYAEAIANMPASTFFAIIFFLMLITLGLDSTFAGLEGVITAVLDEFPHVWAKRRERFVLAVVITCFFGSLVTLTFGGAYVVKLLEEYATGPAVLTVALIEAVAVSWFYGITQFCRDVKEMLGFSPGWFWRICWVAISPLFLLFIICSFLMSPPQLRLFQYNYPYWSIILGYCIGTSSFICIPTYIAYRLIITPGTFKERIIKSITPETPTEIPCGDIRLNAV

NET = NET (Homo sapiens, UniProt P23975); assay: fluorescence-based norepinephrine uptake assay (Tsuruda et al. 2010); assay type: cell-based; details: norepinephrine reuptake inhibition, fluorescence-based assay (data indicated by an asterisk); for IC50: read-out: NET pIC50 (converted)
Sequence of NET (P23975 whole entry): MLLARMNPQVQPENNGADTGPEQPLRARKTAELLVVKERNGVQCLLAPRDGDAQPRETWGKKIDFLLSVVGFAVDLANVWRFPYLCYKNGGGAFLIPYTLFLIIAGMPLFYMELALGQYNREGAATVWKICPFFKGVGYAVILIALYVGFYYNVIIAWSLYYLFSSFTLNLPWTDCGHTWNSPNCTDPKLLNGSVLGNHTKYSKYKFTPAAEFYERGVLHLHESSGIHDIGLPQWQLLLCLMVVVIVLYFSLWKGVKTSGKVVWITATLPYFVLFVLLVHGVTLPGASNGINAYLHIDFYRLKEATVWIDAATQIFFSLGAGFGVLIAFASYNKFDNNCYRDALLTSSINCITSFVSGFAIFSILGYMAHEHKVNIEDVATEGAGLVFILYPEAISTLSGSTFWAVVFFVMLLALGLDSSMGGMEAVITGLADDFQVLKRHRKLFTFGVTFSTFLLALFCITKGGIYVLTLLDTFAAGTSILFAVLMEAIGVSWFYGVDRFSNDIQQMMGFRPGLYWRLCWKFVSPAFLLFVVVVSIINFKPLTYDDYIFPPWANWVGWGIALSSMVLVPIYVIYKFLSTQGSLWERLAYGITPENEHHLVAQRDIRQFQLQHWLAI

| Compound | IC50 (SERT) [µM] | IC50 (NET) [µM] | SERT pIC50 (SERT) | NET pIC50 (NET) |
| --- | --- | --- | --- | --- |
| Clc1cccc(Cl)c1OC(COCc1ccccc1)C1CCNC1 [Example 10-4, ((S)-3-[(R)-2-Benzyloxy-1-(2,6-dichlorophenoxy)ethyl]pyrrolidine] | ≤ 0.1 | ≤ 0.01 |  |  |
| CSC[C@@H](Oc1cccc(Cl)c1Cl)[C@H]1CCNC1.O=C(O)C(F)(F)F [Example 15-2] |  |  | ≧8.0* | ≧8.0* |
| CCOC[C@H](Oc1ccc(Cl)c(Cl)c1)[C@H]1CCNC1 [Example 7-24, (S)-3-[(R)-1-(3,4-Dichlorophenoxy)-2-ethoxyethyl]pyrrolidine] | ≤ 0.01 | ≤ 0.1 |  |  |
| CCOC[C@H](Oc1ccc(Cl)cc1F)[C@H]1CCNC1 [Example 7-21, (S)-3-[(R)-1-(4-Chloro-2-fluorophenoxy)-2-ethoxyethyl]pyrrolidine] | ≤ 0.01 | ≤ 0.01 |  |  |
| CSC[C@@H](Oc1cccc(C(F)(F)F)c1)[C@H]1CCNC1.O=C(O)C(F)(F)F [Example 15-10] |  |  | ≧7.0* | ≧7.0* |
| CCOC[C@H](Oc1ccccc1Cl)[C@H]1CCNC1 [Example 7-1, (S)-3-[(R)-1-(2-Chlorophenoxy)-2-ethoxyethyl]pyrrolidine] | ≤ 0.1 | ≤ 0.01 |  |  |
| CSC[C@H](Oc1ccc(Cl)cc1Cl)[C@H]1CCNC1.O=C(O)C(F)(F)F [Example 15-11] |  |  | ≧8.0* | ≧8.0* |
| CCSC[C@H](Oc1ccc(Cl)cc1Cl)[C@H]1CCNC1.O=C(O)C(F)(F)F [Example 17-7] |  |  | ≧8.0* | ≧8.0* |
| CCOC[C@H](Oc1cccc(C(F)(F)F)c1F)[C@H]1CCNC1 [Example 7-12, (S)-3-[(R)-2-Ethoxy-1-(2-fluoro-3-trifluoromethylphenoxy)ethyl]pyrrolidine] | ≤ 0.1 | ≤ 0.1 |  |  |
| CSC[C@@H](Oc1cccc(F)c1Cl)[C@H]1CCNC1.O=C(O)C(F)(F)F [Example 15-4] |  |  | ≧8.0* | ≧8.0* |
| CCOC[C@H](Oc1c(Cl)ccc(Cl)c1F)[C@H]1CCNC1 [Example 7-32, (S)-3-[(R)-1-(3,6-Dichloro-2-fluorophenoxy)-2-ethoxyethyl]pyrrolidine] | ≤ 0.1 | ≤ 0.01 |  |  |
| Cc1c(Cl)cccc1OC(COCc1ccccc1)C1CCNC1 [Example 10-5, ((S)-3-[(R)-2-Benzyloxy-1-(3-chloro-2-methylphenoxy)ethyl]pyrrolidine] | ≤ 0.01 | ≤ 0.01 |  |  |
| CCOC[C@H](Oc1ccc(F)cc1Cl)[C@H]1CCNC1 [Example 7-18, (S)-3-[(R)-1-(2-Chloro-4-fluorophenoxy)-2-ethoxyethyl]pyrrolidine] | ≤ 0.1 | ≤ 0.01 |  |  |
| CCSC[C@@H](Oc1cccc(Cl)c1C(F)(F)F)[C@H]1CCNC1.O=C(O)C(F)(F)F [Example 17-14] |  |  | ≧8.0* | ≧7.0* |
| CSC[C@@H](Oc1ccc(Cl)cc1Cl)[C@H]1CCNC1.O=C(O)C(F)(F)F [Example 15-12] |  |  | ≧8.0* | ≧7.0* |
| CCOC[C@@H](Oc1ccc(C#N)cc1Cl)[C@@H]1CCNC1 (stereo in doubt) [Example 7-20, 3-Chloro-4-((R)-2-ethoxy-1-(S)-pyrrolidin-3-ylethoxy)benzonitrile] | ≤ 0.01 | ≤ 0.1 |  |  |
| CCSC[C@H](Oc1cccc(Cl)c1Cl)[C@H]1CCNC1.O=C(O)C(F)(F)F [Example 17-1] |  |  | ≧8.0* | ≧8.0* |
| CCSC[C@H](Oc1cccc(Cl)c1C)[C@H]1CCNC1.O=C(O)C(F)(F)F [Example 17-5] |  |  | ≧8.0* | ≧8.0* |
| CCSC[C@H](Oc1ccc(Cl)cc1C(F)(F)F)[C@H]1CCNC1.O=C(O)C(F)(F)F [Example 17-13] |  |  | ≧8.0* | ≧8.0* |
| CCOC[C@@H](Oc1cccc(C(F)(F)F)c1)[C@H]1CCNC1 [Example 7-3, (S)-3-[(S)-2-Ethoxy-1-(3-trifluoromethylphenoxy)ethyl]pyrrolidine] | ≤ 0.1 | ≤ 0.1 |  |  |
| CSC[C@@H](Oc1ccc(F)c(F)c1F)[C@H]1CCNC1.O=C(O)C(F)(F)F [Example 15-14] |  |  | ≧7.0* | ≧8.0* |
| CCSC[C@H](Oc1ccc(Cl)cc1)[C@H]1CCNC1.O=C(O)C(F)(F)F [Example 17-10] |  |  | ≧8.0* | ≧8.0* |
| CCSC[C@@H](Oc1cccc(Cl)c1Cl)[C@H]1CCNC1.O=C(O)C(F)(F)F [Example 17-2] |  |  | ≧8.0* | ≧8.0* |
| CCOC[C@H](Oc1c(F)ccc(F)c1Cl)[C@H]1CCNC1 [Example 7-30, (S)-3-[(R)-1-(2-Chloro-3,6-difluorophenoxy)-2-ethoxyethyl]pyrrolidine] | ≤ 0.1 | ≤ 0.01 |  |  |
| Clc1ccc(OC(COCc2ccccc2)C2CCNC2)c(Cl)c1 [Example 10-3, ((S)-3-[(R)-2-Benzyloxy-1-(2,4-dichlorophenoxy)ethyl]pyrrolidine] | ≤ 0.01 | ≤ 0.1 |  |  |

The next lines start with results.

| IC50 (SERT) [µM] | IC50 (NET) [µM] | Compound | SERT pIC50 (SERT) | NET pIC50 (NET) |
| --- | --- | --- | --- | --- |
| ≤ 0.01 | ≤ 0.01 | Clc1cccc(OC(COCc2ccccc2)C2CCNC2)c1Cl [Example 10-2, ((S)-3-[(R)-2-Benzyloxy-1-(2,3-dichlorophenoxy)ethyl]pyrrolidine] |  |  |
| ≤ 0.1 | ≤ 0.01 | CC(C)OC[C@@H](Oc1c(Cl)cccc1Cl)[C@H]1CCNC1 [Example 9-28, (S)-3-[(S)-1-(2,6-Dichlorophenoxy)-2-isopropoxyethyl]pyrrolidine] |  |  |
| ≤ 0.01 | ≤ 0.01 | CCOC[C@H](Oc1cccc(Cl)c1C)[C@H]1CCNC1 [Example 7-13, (S)-3-[(R)-1-(3-Chloro-2-methylphenoxy)-2-ethoxyethyl]pyrrolidine] |  |  |
| ≤ 0.01 | ≤ 0.1 | CC(C)OC[C@@H](Oc1ccc(Cl)cc1Cl)[C@H]1CCNC1 [Example 9-23, (S)-3-[(S)-1-(2,4-Dichlorophenoxy)-2-isopropoxyethyl]pyrrolidine] |  |  |
| ≤ 0.01 | ≤ 0.01 | CSC[C@H](Oc1ccc(Cl)cc1C)[C@H]1CCNC1 [Example 14, (S)-3-[(R)-1-(4-Chloro-2-methylphenoxy)-2-methylsulfanylethyl]pyrrolidine] |  |  |
| ≤ 0.01 | ≤ 0.01 | CC(C)SC[C@@H](Oc1cccc(Cl)c1Cl)[C@H]1CCNC1 [Example 19-2, (S)-3-[(S)-1-(2,3-Dichlorophenoxy)-2-isopropylsulfanylethyl]pyrrolidine] |  |  |
| ≤ 0.01 | ≤ 0.01 | Cc1c(Cl)cccc1O[C@H](COC(C)C)[C@H]1CCNC1 [Example 9-15, (S)-3-[(S)-1-(3-Chloro-2-methylphenoxy)-2-isopropoxyethyl]pyrrolidine] |  |  |
| ≤ 0.01 | ≤ 0.01 | CC(C)SC[C@H](Oc1cccc(Cl)c1C(F)(F)F)[C@H]1CCNC1 [Example 18, (S)-3-[(R)-1-(3-Chloro-2-trifluoromethylphenoxy)-2-isopropylsulfanylethyl]pyrrolidine] |  |  |
| ≤ 0.01 | ≤ 0.01 | CC(C)SC[C@H](Oc1cccc(Cl)c1Cl)[C@H]1CCNC1 [Example 19-1, (S)-3-[(R)-1-(2,3-Dichlorophenoxy)-2-isopropylsulfanylethyl]pyrrolidine] |  |  |
| ≤ 0.01 | ≤ 0.01 | CC(C)SC[C@H](Oc1cccc(F)c1Cl)[C@H]1CCNC1 [Example 19-3, (S)-3-[(R)-1-(2-Chloro-3-fluorophenoxy)-2-isopropylsulfanylethyl]pyrrolidine] |  |  |
| ≤ 0.01 | ≤ 0.01 | CC(C)OC[C@H](Oc1cccc(Cl)c1Cl)[C@H]1CCNC1 [Example 9-7, (S)-3-[(R)-1-(2,3-Dichlorophenoxy)-2-isopropoxyethyl]pyrrolidine] |  |  |
| ≤ 0.01 | ≤ 0.01 | CC(C)SC[C@H](Oc1ccc(Cl)c(Cl)c1)[C@H]1CCNC1 [Example 19-7, (S)-3-[(R)-1-(3,4-Dichlorophenoxy)-2-isopropylsulfanylethyl]-pyrrolidine] |  |  |
| ≤ 0.01 | ≤ 0.01 | CCOC[C@@H](Oc1cccc(F)c1Cl)[C@H]1CCNC1 [Example 7-10, (S)-3-[(S)-1-(2-Chloro-3-fluorophenoxy)-2-ethoxyethyl]pyrrolidine] |  |  |
| ≤ 0.01 | ≤ 0.01 | CC(C)SC[C@@H](Oc1cccc(Cl)c1C(F)(F)F)[C@H]1CCNC1 [Example 19-6, (S)-3-[(S)-1-(3-Chloro-2-trifluoromethylphenoxy)-2-isopropylsulfanylethyl]pyrrolidine] |  |  |
